Each molecule was assayed against FmlH (Escherichia coli, UniProt Q1RBS0). Details: ELISA IC50 ratio.
Assay type: binding, Escherichia coli (UPEC, CFT073)

| SMILES | fold drop in activity relative to 1 | fold greater potency / improvement in activity relative to 1 |
| --- | --- | --- |
| COc1ccc(C(=O)O)cc1-c1ccccc1O[C@@H]1O[C@H](CO)[C@H](O)[C@H](O)[C@H]1NC(C)=O [Compound 31, 2’-(((2S,3R,4R,5R,6R)-3-Acetamido-4,5-dihydroxy-6 (hydroxymethyl)tetrahydro-2H-pyran-2-yl)oxy)-6-methoxy-[1,1’- biphenyl]-3-carboxylic Acid] | 6 fold | – |
| CC(=O)N[C@H]1[C@H](Oc2ccccc2-c2cccc(NS(C)(=O)=O)c2)O[C@H](CO)[C@H](O)[C@@H]1O [Compound 50, N-((2S,3R,4R,5R,6R)-4,5-Dihydroxy-6-(hydroxymethyl)-2-((3’- (methylsulfonamido)-[1,1’-biphenyl]-2-yl)oxy)tetrahydro-2H-pyran-3-yl)acetamide] | – | 3 fold |

Same assay, conditions: ELISA IC50 ratio; 50 vs 51, 30 vs 29

| SMILES | fold more potent than the matched pair Gal/GalNAc derivative |
| --- | --- |
| CC(=O)N[C@H]1[C@H](Oc2ccccc2-c2cccc(NS(C)(=O)=O)c2)O[C@H](CO)[C@H](O)[C@@H]1O [Compound 50, N-((2S,3R,4R,5R,6R)-4,5-Dihydroxy-6-(hydroxymethyl)-2-((3’- (methylsulfonamido)-[1,1’-biphenyl]-2-yl)oxy)tetrahydro-2H-pyran-3-yl)acetamide] | about 5 fold |

Same assay, conditions: IC50, ELISA, FmlH binding to desialylated bovine submaxillary mucin; average of four or more replicates

| SMILES | IC50 |
| --- | --- |
| COc1cccc(-c2ccccc2O[C@@H]2O[C@H](CO)[C@H](O)[C@H](O)[C@H]2NC(C)=O)c1 [Compound 37, N-((2S,3R,4R,5R,6R)-4,5-Dihydroxy-6-(hydroxymethyl)-2-((3’-me-thoxy-[1,1’-biphenyl]-2-yl)oxy)tetrahydro-2H-pyran-3-yl)-acetamide] | 2000 nM |
| CC(=O)NC1[C@H](Oc2cccc(C)c2-c2cccc(NS(=O)(=O)N(C)C)c2)O[C@H](CO)[C@H](O)[C@@H]1O (stereo in doubt) [Compound 87, N-((2S,3S,4R,5R)-2-((3’-((N,N-Dimethylsulfamoyl)amino)-6-methyl-[1,1’-biphenyl]-2-yl)oxy)-4,5-dihydroxy-6-(hydroxymethyl)-tetrahydro-2H-pyran-3-yl)acetamide] | 77 nM |
| CC(=O)N[C@H]1[C@H](Oc2cccc([N+](=O)[O-])c2-c2cccc(NS(C)(=O)=O)c2)O[C@H](CO)[C@H](O)[C@@H]1O [Compound 78, N-((2S,3R,4R,5R,6R)-4,5-Dihydroxy-6-(hydroxymethyl)-2-((3’- (methylsulfonamido)-6-nitro-[1,1’-biphenyl]-2-yl)oxy)tetrahydro-2H-pyran-3-yl)acetamide] | 58 nM |
| CC(=O)N[C@H]1[C@H](Oc2ccccc2-c2cccc([N+](=O)[O-])c2)O[C@H](CO)[C@H](O)[C@@H]1O [Compound 38, N-((2S,3R,4R,5R,6R)-4,5-Dihydroxy-6-(hydroxymethyl)-2-((3’-nitro-[1,1’-biphenyl]-2-yl)oxy)tetrahydro-2H-pyran-3-yl)acetamide] | 2700 nM |
| COc1ccc(C(=O)O)cc1-c1ccccc1O[C@@H]1O[C@H](CO)[C@H](O)[C@H](O)[C@H]1NC(C)=O [Compound 31, 2’-(((2S,3R,4R,5R,6R)-3-Acetamido-4,5-dihydroxy-6 (hydroxymethyl)tetrahydro-2H-pyran-2-yl)oxy)-6-methoxy-[1,1’- biphenyl]-3-carboxylic Acid] | 3900 nM |
| CC(=O)N[C@H]1[C@H](Oc2ccccc2-c2cccc(OS(C)(=O)=O)c2)O[C@H](CO)[C@H](O)[C@@H]1O [Compound 33, 2’-(((2S,3R,4R,5R,6R)-3-Acetamido-4,5-dihydroxy-6-(hydroxymethyl)tetrahydro-2H-pyran-2-yl)oxy)-[1,1’-biphenyl]-3-yl methanesulfonate] | 890 nM |
| COc1cccc(O[C@@H]2O[C@H](CO)[C@H](O)[C@H](O)[C@H]2NC(C)=O)c1-c1cccc(NS(C)(=O)=O)c1 [Compound 83, N-((2S,3S,4R,5R)-4,5-Dihydroxy-6-(hydroxymethyl)-2-((6-me-thoxy-3 ‘-(methylsulfonamido)-[1,1 ‘-biphenyl]-2-yl)oxy)tetrahydro-2H-pyran-3-yl)acetamide] | 92 nM |
| CC(=O)N[C@H]1[C@H](Oc2ccc3ccccc3c2-c2cccc(NS(C)(=O)=O)c2)O[C@H](CO)[C@H](O)[C@@H]1O [Compound 85, N-((2S,3R,4R,5R,6R)-4,5-Dihydroxy-6-(hydroxymethyl)-2-((1-(3 (methylsulfonamido)phenyl)naphthalen-2-yl)oxy)tetrahydro-2H-pyran-3-yl)acetamide] | 81 nM |
| CC(=O)N[C@H]1[C@H](Oc2ccccc2-c2cccc(C#N)c2)O[C@H](CO)[C@H](O)[C@@H]1O [Compound 39, N-((2S,3R,4R,5R,6R)-2-((3’-Cyano-[1,1’-biphenyl]-2-yl)oxy)-4,5-dihydroxy-6-(hydroxymethyl)tetrahydro-2H-pyran-3-yl)acetamide] | 970 nM |
| CNC(=O)c1cccc(-c2ccccc2O[C@@H]2O[C@H](CO)[C@H](O)[C@H](O)[C@H]2NC(C)=O)c1 [Compound 47, 2’-(((2S,3R,4R,5R,6R)-3-Acetamido-4,5-dihydroxy-6-(hydroxymethyl)tetrahydro-2H-pyran-2-yl)oxy)-N-methyl-[1,1’-bi-phenyl]-3-carboxamide] | 3400 nM |
| CC(=O)N[C@H]1[C@H](Oc2ccccc2-c2cccc(C(F)(F)F)c2)O[C@H](CO)[C@H](O)[C@@H]1O [Compound 40, N-((2S,3R,4R/5R/6R)-4/5-Dihydroxy-6-(hydroxymethyl)-2-((3’-(tri-fluoromethyl)-[1,1’-biphenyl]-2-yl)oxy)tetrahydro-2H-pyran-3-yl) acetamide] | 1500 nM |
| CC(=O)Nc1cccc(-c2ccccc2O[C@@H]2O[C@H](CO)[C@H](O)[C@H](O)[C@H]2NC(C)=O)c1 [Compound 43, N-(2’-(((2S,3R,4R,5R,6R)-3-Acetamido-4,5-dihydroxy-6-(hydroxymethyl)tetrahydro-2H-pyran-2-yl)oxy)-[1,1’-biphenyl]-3-yl)acetamide] | 310 nM |
| CC(=O)N[C@H]1[C@H](Oc2ccccc2-c2cc(C(=O)O)cc([N+](=O)[O-])c2)O[C@H](CO)[C@H](O)[C@@H]1O [Compound 29, 2’-(((2S,3S/4R/5R)-3-Acetamido-4,5-dihydroxy-6-(hydroxymethyl)tetrahydro-2H-pyran-2-yl)oxy)-5-nitro-[1, 1’-bi-phenyl]-3-carboxylic Acid] | 2200 nM |
| COc1ccc(O)cc1-c1ccccc1O[C@@H]1O[C@H](CO)[C@H](O)[C@H](O)[C@H]1NC(C)=O [Compound 34, N-((2S,3R,4R,5R,6R)-4,5-Dihydroxy-2-((5’-hydroxy-2’ methoxy-[1,1’-biphenyl]-2-yl)oxy)-6-(hydroxymethyl)tetrahydro-2H-pyran-3-yl)acetamide] | 510 nM |
| CC(=O)N[C@H]1[C@H](Oc2ccccc2-c2cccc(F)c2)O[C@H](CO)[C@H](O)[C@@H]1O [Compound 36, N-((2S,3R,4R,5R,6R)-2-((3 ‘-Fluoro-[1,1’-biphenyl]-2-yl)oxy)-4,5-dihydroxy-6-(hydroxymethyl)tetrahydro-2H-pyran-3-yl)acetamide] | 1500 nM |
| CC(=O)N[C@H]1[C@H](Oc2cccc(C#N)c2-c2cccc(NS(C)(=O)=O)c2)O[C@H](CO)[C@H](O)[C@@H]1O [Compound 79, N-((2S,3S,4R,5R)-2-((6-Cyano-3’-(methylsulfonamido)-[1,1’-bi-phenyl]-2-yl)oxy)-4,5-dihydroxy-6-(hydroxymethyl)tetra’hydro-2H-pyran-3-yl)acetamide] | 44 nM |
| CC(=O)N[C@H]1[C@H](Oc2cccc(C(=O)OCc3ccccc3)c2-c2cccc(NS(C)(=O)=O)c2)O[C@H](CO)[C@H](O)[C@@H]1O [Compound 81, Benzyl6-(((2S,3S,4R,5R)-3-Acetamido-4,5-dihydroxy-6-(hydroxymethyl)tetrahydro-2H-pyran-2-yl)oxy)-3’-(methylsulfona-mido)-[1,1’-biphenyl]-2-carboxylate] | 89 nM |
| CC(=O)N[C@H]1[C@H](Oc2ccccc2-c2cccc(C(=O)N(C)C)c2)O[C@H](CO)[C@H](O)[C@@H]1O [Compound 46, 2’-(((2S,3R,4R,5R,6R)-3-Acetamido-4,5-dihydroxy-6-(hydroxymethyl)tetrahydro-2H-pyran-2-yl)oxy)-N,N-dimethyl-[1,1’- biphenyl]-3-carboxamide] | 3100 nM |
| CC(=O)N[C@H]1[C@H](Oc2ccccc2-c2cccc(CO)c2)O[C@H](CO)[C@H](O)[C@@H]1O [Compound 42, N-((2S,3R,4R/5R/6R)-4/5-Dihydroxy-6-(hydroxymethyl)-2-((3’-(hy-droxymethyl)-[1,1’-biphenyl]-2-yl)oxy)tetrahydro-2H-pyran-3-yl)-acetamide] | 630 nM |
| CC(=O)N[C@H]1[C@H](Oc2ccccc2-c2cccc(NS(=O)(=O)C(F)(F)F)c2)O[C@H](CO)[C@H](O)[C@@H]1O [Compound 49, N-((2S,3R,4R,5R,6R)-4,5-Dihydroxy-6-(hydroxymethyl)-2-((3’-((trifluoromethyl)sulfonamido)-[1,1’-biphenyl]-2-yl)oxy)-tetrahydro-2H-pyran-3-yl)acetamide] | 1100 nM |
| CC(=O)NC1[C@H](Oc2ccccc2-c2cccc(NC(=O)C(F)(F)F)c2)O[C@H](CO)[C@H](O)[C@@H]1O (stereo in doubt) [Compound 44, N-(2’-(((2S,3S,4R,5R)-3-Acetamido-4,5-dihydroxy-6 (hydroxymethyl)tetrahydro-2H-pyran-2-yl)oxy)-[1,1’-biphenyl]-3-yl)-2,2,2-trifluoroacetamide] | 370 nM |
| COC(=O)Nc1cccc(-c2ccccc2O[C@@H]2O[C@H](CO)[C@H](O)[C@H](O)[C@H]2NC(C)=O)c1 [Compound 45, Methyl(2’-(((2S,3R/4R/5R,6R)-3-Acetamido-4/5-dihydroxy-6-(hydroxymethyl)tetrahydro-2H-pyran-2-yl)oxy)-[1,1’-biphenyl]-3 yl)carbamate] | 630 nM |
| Cc1cccc(O[C@@H]2O[C@H](CO)[C@H](O)[C@H](O)[C@H]2NS(C)(=O)=O)c1-c1cccc(NS(C)(=O)=O)c1 [Compound 89, N-((2S,3R,4R,5R,6R)-4,5-Dihydroxy-6-(hydroxymethyl)-2-((6-methyl-3’-(methylsulfonamido)-[1,1’-biphenyl]-2-yl)oxy)-tetrahydro-2H-pyran-3-yl)methanesulfonamide] | 3500 nM |
| CC(=O)N[C@H]1[C@H](Oc2ccccc2-c2cccc(C(N)=O)c2)O[C@H](CO)[C@H](O)[C@@H]1O [Compound 48, 2’-(((2S,3R,4R,5R,6R)-3-Acetamido-4,5-dihydroxy-6 (hydroxymethyl)tetrahydro-2H-pyran-2-yl)oxy)-[1,1’-biphenyl]-3-carboxamide] | 1600 nM |
| CC(=O)N[C@H]1[C@H](Oc2ccccc2-c2cccc(NS(C)(=O)=O)c2)O[C@H](CO)[C@H](O)[C@@H]1O [Compound 50, N-((2S,3R,4R,5R,6R)-4,5-Dihydroxy-6-(hydroxymethyl)-2-((3’- (methylsulfonamido)-[1,1’-biphenyl]-2-yl)oxy)tetrahydro-2H-pyran-3-yl)acetamide] | 230 nM |
| CC(=O)N[C@H]1[C@H](Oc2ccccc2-c2cccc(S(C)(=O)=O)c2)O[C@H](CO)[C@H](O)[C@@H]1O [Compound 41, N-((2S,3R,4R,5R,6R)-4,5-Dihydroxy-6-(hydroxymethyl)-2-((3’- (methylsulfonyl)-[1,1’-biphenyl]-2-yl)oxy)tetrahydro-2H-pyran-3-yl)acetamide] | 700 nM |

Reference: publication PMC6467771 (Journal of medicinal chemistry, 2019)
